# From patent US20120135923A1, “Use of Melanocortins to Treat Dyslipidemia” (IPSEN PHARMA, S.A.S., priority 2009, published 2012)
# Like-named read-outs stand apart in the source and are kept apart here. Bridge positions count the residues as written; N and C are the ends. Square brackets hold non-standard residues; d marks the D form. Peptide text beside a SMILES is read from it. 2Nal = N[C@@H](Cc1ccc2ccccc2c1)C(=O)O; d2Nal = N[C@H](Cc1ccc2ccccc2c1)C(=O)O; Pen = CC(C)(S)[C@H](N)C(=O)O; Nle = CCCC[C@H](N)C(=O)O; GABA = NCCCC(=O)O
# How the values were obtained:
# [1] = biological target: T1, hMC4-R (Homo sapiens, UniProt P32245); test: cyclic AMP bioassay (ECL) in CHO-K1 cells; format: cell-based
# T1 construct: expressed in transfected cells; host or cells: CHO-K1
# T1 sequence (P32245 whole entry): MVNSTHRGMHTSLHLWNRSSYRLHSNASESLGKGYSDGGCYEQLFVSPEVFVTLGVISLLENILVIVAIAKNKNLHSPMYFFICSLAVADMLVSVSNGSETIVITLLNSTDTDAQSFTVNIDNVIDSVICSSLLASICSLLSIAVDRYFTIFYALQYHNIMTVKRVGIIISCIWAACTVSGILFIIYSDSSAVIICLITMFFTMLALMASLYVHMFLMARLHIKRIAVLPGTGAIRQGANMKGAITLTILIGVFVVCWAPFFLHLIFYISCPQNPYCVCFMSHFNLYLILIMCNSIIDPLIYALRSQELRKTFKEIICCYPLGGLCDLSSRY
# [2] = biological target: T2, hMC1-R (Homo sapiens, UniProt Q01726); test: cyclic AMP bioassay (ECL) in CHO-K1 cells; format: cell-based
# T2 construct: expressed in transfected cells; host or cells: CHO-K1
# T2 sequence (Q01726 whole entry): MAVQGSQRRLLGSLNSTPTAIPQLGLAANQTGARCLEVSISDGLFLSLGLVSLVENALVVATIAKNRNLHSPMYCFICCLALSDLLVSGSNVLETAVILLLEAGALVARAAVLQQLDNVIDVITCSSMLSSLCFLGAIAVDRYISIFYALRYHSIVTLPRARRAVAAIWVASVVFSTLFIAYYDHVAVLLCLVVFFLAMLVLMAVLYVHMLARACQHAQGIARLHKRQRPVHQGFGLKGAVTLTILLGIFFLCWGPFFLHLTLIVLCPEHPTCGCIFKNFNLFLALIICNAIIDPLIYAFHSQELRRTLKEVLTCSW
# [3] = biological target: T3, hMC5-R (Homo sapiens, UniProt P33032); test: cyclic AMP bioassay (ECL) in CHO-K1 cells; format: cell-based
# T3 construct: expressed in transfected cells; host or cells: CHO-K1
# T3 sequence (P33032 whole entry): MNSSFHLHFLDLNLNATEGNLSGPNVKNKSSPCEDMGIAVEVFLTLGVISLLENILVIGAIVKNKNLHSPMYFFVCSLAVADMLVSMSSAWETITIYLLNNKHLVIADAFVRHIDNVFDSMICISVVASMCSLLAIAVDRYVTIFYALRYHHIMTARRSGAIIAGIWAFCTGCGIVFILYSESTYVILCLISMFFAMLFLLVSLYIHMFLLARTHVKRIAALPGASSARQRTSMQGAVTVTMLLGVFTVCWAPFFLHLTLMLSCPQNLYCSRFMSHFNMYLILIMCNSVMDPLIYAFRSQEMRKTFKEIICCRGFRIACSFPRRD
# [4] = biological target: T1, hMC4-R; test: Radioligand binding assay, [125I]-NDP-α-MSH competition, CHO-K1 membranes
# [5] = biological target: T3, hMC5-R; test: as above
# [6] = biological target: T4, hMC3-R (Homo sapiens, UniProt P41968); test: cyclic AMP bioassay (ECL) in CHO-K1 cells; format: cell-based
# T4 construct: expressed in transfected cells; host or cells: CHO-K1
# T4 sequence (P41968 whole entry): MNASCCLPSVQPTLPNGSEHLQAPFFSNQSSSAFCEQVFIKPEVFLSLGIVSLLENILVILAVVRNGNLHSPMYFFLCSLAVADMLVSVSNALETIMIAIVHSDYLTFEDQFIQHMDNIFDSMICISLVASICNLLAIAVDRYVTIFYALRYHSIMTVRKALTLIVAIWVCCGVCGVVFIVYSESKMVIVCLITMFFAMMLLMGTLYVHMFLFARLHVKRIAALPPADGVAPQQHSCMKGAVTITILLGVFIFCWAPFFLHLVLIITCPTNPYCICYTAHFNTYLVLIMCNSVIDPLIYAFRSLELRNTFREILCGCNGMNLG
# Description: Intracellular cyclic AMP (cAMP) levels were determined by an electrochemiluminescence (ECL) assay (Meso Scale Discovery®, Gaithersburg, Md.; referred to hereinafter as MSD). […] Transgenic CHO-K1 cells stably expressing hMC receptor subtypes 1, 3, 4 or 5 were dispensed at a density of approximately 7,000 cells/well in 384-well Multi-Array®plates (MSD) containing integrated carbon electrodes and coated with anti-cAMP antibody. Increasing concentrations of the test compounds were added and the cells were incubated for approximately 40 minutes at approximately 37° C. […] At the end of the second incubation period read buffer (Tris-buffered solution containing an ECL co-reactant and Triton X-100 at ph 7.8) was added and the cAMP levels in the cell lysates were immediately determined by ECL detection with a Sector Imager 6000 Reader® (MSD). Data were analyzed using a computer-assisted non-linear regression analysis (XL fit; IDBS) and reported as either an EC50 value or a Kb value.
# The Kb value reflects the potency of an antagonist and is determined by Schild analysis. In brief, concentration-response curves of an agonist are carried out in the presence of increasing concentrations of an antagonist. […] It is calculated by extrapolating the line on a Schild plot to zero on the y-axis.
# [7] = biological target: T2, hMC1-R; test: Radioligand binding assay, [125I]-NDP-α-MSH competition, CHO-K1 membranes; settings: Table 5
# [8] = biological target: T4, hMC3-R; test: as above; settings: Table 5
"Ki ([4]; Table 5, read-out: Ki KMC4-R) [nM]",Ki ([7]; read-out: Ki hMC1-R) [nM],Ki ([8]; read-out: Ki hMC3-R) [nM],"Ki ([5]; Table 5, read-out: Ki hMC5-R) [nM]",SMILES,"Ki ([4]; Ki KMC4-R, Table 5) [nM]","Ki ([5]; Ki hMC5-R, Table 5) [nM]",also measured
–,–,–,–,CC(=O)N[C@H]1CSSC[C@@H](C(=O)N2CCC[C@H]2C(=O)N2CCC[C@H]2C(=O)N[C@@H](CCCCN)C(=O)N[C@@H](CC(=O)O)C(=O)NCCC(=O)N[C@@H](CCCNC(=N)N)C(=O)N[C@@H](CCCNC(=N)N)C(=O)N[C@@H](CCCCN)C(=O)N[C@@H](CCCNC(=N)N)C(=O)N[C@@H](CCCNC(=N)N)C(=O)N[C@@H](CCC(N)=O)C(=O)N[C@@H](CCCNC(=N)N)C(=O)N[C@@H](CCCNC(=N)N)C(=O)N[C@@H](CCCNC(=N)N)C(N)=O)NC(=O)[C@H](C)NC(=O)[C@H](Cc2csc3ccccc23)NC(=O)[C@H](CCCNC(=N)N)NC(=O)[C@@H](Cc2ccc3ccccc3c2)NC(=O)[C@H](Cc2c[nH]cn2)NC(=O)[C@H](CCC(=O)O)NC1=O,–,–,"Kb [1]: 10 nM; EC50 [2]: 232 nM; EC50 [3]: 250 nM; Ki ([4]; Ki hMC4-R, Table 6): 0.442 nM; Ki ([5]; Ki hMC5-R, Table 6): 15.5 nM"
1.49,–,–,–,CC(=O)N[C@@H](CC1CCCCC1)C(=O)N[C@H]1CC(=O)NCCCC[C@@H](C(N)=O)NC(=O)CCCNC(=O)[C@H](Cc2c[nH]c3ccccc23)NC(=O)[C@H](CCCNC(=N)N)NC(=O)[C@@H](Cc2ccccc2)NC(=O)[C@H](Cc2c[nH]cn2)NC1=O [Ac-Cha-c(Asp-His-D-Phe-Arg-Trp-Gaba-Lys)-NH2],–,–,"EC50 ([1]; Table 9A/9B, read-out: EC50 hMC4-R): 0.0949 nM; EC50 ([2]; Table 9A/9B, read-out: EC50 hMC1-R): 3.26 nM; EC50 ([3]; Table 9A/9B, read-out: EC50 hMC5-R): 30.2 nM; EC50 ([6]; Table 9A/9B, read-out: EC50 hMC3-R): 0.189 nM"
2.53,32.5,5.85,94.6,CCCC[C@H](NC(C)=O)C(=O)N[C@H]1CSSC[C@@H](C(N)=O)NC(=O)[C@H](Cc2ccc3ccccc3c2)NC(=O)[C@H](CCCNC(=N)N)NC(=O)[C@@H](Cc2ccc3ccccc3c2)NC(=O)[C@H](Cc2c[nH]cn2)NC(=O)[C@@H](C)NC1=O [Ac-Nle-c(Cys-D-Ala-His-D-2-Nal-Arg-2-Nal-Cys)-NH2] (Ac-[Nle]C[dA]H[d2Nal]R[2Nal]C-NH2; disulfide 2-8),–,–,–
–,–,–,–,CCCC[C@H](NC(C)=O)C(=O)N[C@H]1CSSC[C@@H](C(N)=O)NC(=O)[C@H](Cc2c[nH]c3ccccc23)NC(=O)[C@H](CCCNC(=N)N)NC(=O)[C@@H](Cc2ccc3ccccc3c2)NC(=O)[C@H](Cc2c[nH]cn2)NC(=O)[C@@H](C)NC1=O [Ac-Nle-c(Cys-D-Ala-His-D-2-Nal-Arg-Trp-Cys)-NH2],7.61,102,Kb [1]: 38.8 nM; EC50 [2]: 17.6 nM; EC50 [3]: 11.8 nM; Kb [6]: 12.4 nM
–,–,–,–,CCCC[C@H](NC(C)=O)C(=O)N[C@H]1CSSC[C@@H](C(=O)O)NC(=O)[C@H](Cc2c[nH]c3ccccc23)NC(=O)[C@H](CCCNC(=N)N)NC(=O)[C@@H](Cc2ccccc2)NC(=O)[C@H](Cc2c[nH]cn2)NC(=O)[C@@H](C)NC1=O [Ac-Nle-c(Cys-D-Ala-His-D-Phe-Arg-Trp-Cys)-OH],15.6,114,Ki ([7]; Ki hMC1-R): 30.7 nM; Ki ([8]; Ki hMC3-R): 152 nM
48,3.93,876,4940,CCCC[C@H](NC(C)=O)C(=O)N[C@H]1CSSC[C@@H](C(N)=O)NC(=O)[C@@H](C)NC(=O)[C@H](Cc2c[nH]c3ccccc23)NC(=O)[C@H](CCCNC(=N)N)NC(=O)[C@@H](Cc2ccccc2)NC(=O)[C@H](Cc2c[nH]cn2)NC(=O)[C@@H](C)NC1=O [Ac-Nle-c(Cys-D-Ala-His-D-Phe-Arg-Trp-D-Ala-Cys)-NH2] (Ac-[Nle]C[dA]H[dF]RW[dA]C-NH2; disulfide 2-9),–,–,–
–,–,–,–,CCCC[C@H](NC(C)=O)C(=O)N[C@H]1CSSC(C)(C)[C@@H](C(=O)O)NC(=O)[C@H](Cc2c[nH]c3ccccc23)NC(=O)[C@H](CCCNC(=N)N)NC(=O)[C@@H](Cc2ccccc2)NC(=O)[C@H](Cc2c[nH]cn2)NC(=O)[C@@H](C)NC1=O [Ac-Nle-c(Cys-D-Ala-His-D-Phe-Arg-Trp-Pen)-OH],17.4,165,–
5.89,0.537,86.1,2.56,CCCC[C@H](NC(C)=O)C(=O)N[C@@H]1C(=O)N[C@@H](Cc2c[nH]cn2)C(=O)N[C@H](Cc2ccccc2)C(=O)N[C@@H](CCCNC(=N)N)C(=O)N[C@@H](Cc2c[nH]c3ccccc23)C(=O)NCCCC(=O)N[C@H](C(N)=O)CSSC1(C)C [Ac-Nle-c(Pen-His-D-Phe-Arg-Trp-Gaba-Cys)-NH2] (Ac-[Nle][Pen]H[dF]RW[GABA]C-NH2; disulfide 2-8 (inferred)),–,–,–
